Measured values: the NIST ThermoML archive (doi:10.1021/je030177j)
Numbers after ± are expanded uncertainties.

Test: mn = molality of the nth substance listed, in mol/kg
Details: Liquid, Capillary tube (Ostwald / Ubbelohde) method

O=S(=O)([O-])[O-].[Li+].[Li+] [lithium sulfate] + O
viscosity [mPa·s]
Details | 10000 kPa | 20000 kPa | 30000 kPa
415.76 K, m1 = 0.885 | – | – | 0.2944 ± 0.0049
417.42 K, m1 = 0.28 | 0.2175 ± 0.0037 | 0.2199 ± 0.0038 | 0.2227 ± 0.0038
418.18 K, m1 = 0.56 | 0.2443 ± 0.0041 | 0.2469 ± 0.0042 | 0.2497 ± 0.0042
420.67 K, m1 = 0.1 | 0.198 ± 0.0034 | 0.201 ± 0.0035 | 0.2031 ± 0.0035
423.55 K, m1 = 0.28 | 0.208 ± 0.0036 | 0.2106 ± 0.0036 | 0.2133 ± 0.0037
424.05 K, m1 = 0.885 | 0.2687 ± 0.0045 | 0.2721 ± 0.0046 | 0.2756 ± 0.0047
424.55 K, m1 = 0.56 | 0.233 ± 0.004 | 0.2359 ± 0.004 | 0.239 ± 0.0041
430.26 K, m1 = 0.885 | 0.2564 ± 0.0044 | 0.2601 ± 0.0044 | 0.264 ± 0.0045
430.73 K, m1 = 0.28 | 0.1975 ± 0.0034 | 0.1999 ± 0.0034 | 0.2024 ± 0.0035
431.72 K, m1 = 0.1 | 0.1829 ± 0.0032 | 0.1849 ± 0.0032 | 0.1871 ± 0.0032
431.83 K, m1 = 0.56 | 0.2212 ± 0.0038 | 0.2231 ± 0.0038 | 0.2251 ± 0.0038
437.24 K, m1 = 0.56 | 0.213 ± 0.0037 | 0.2154 ± 0.0037 | 0.2185 ± 0.0037
439.37 K, m1 = 0.885 | 0.2402 ± 0.0041 | 0.244 ± 0.0042 | 0.2479 ± 0.0042
440.04 K, m1 = 0.28 | 0.1858 ± 0.0032 | 0.1885 ± 0.0033 | 0.191 ± 0.0033
446.35 K, m1 = 0.56 | 0.2 ± 0.0035 | 0.203 ± 0.0035 | 0.206 ± 0.0035
449.15 K, m1 = 0.885 | 0.2248 ± 0.0039 | 0.2283 ± 0.0039 | 0.2318 ± 0.004
449.35 K, m1 = 0.28 | 0.175 ± 0.0031 | 0.1776 ± 0.0031 | 0.1803 ± 0.0031
449.55 K, m1 = 0.1 | 0.163 ± 0.0029 | 0.1654 ± 0.0029 | 0.168 ± 0.003
452.17 K, m1 = 0.56 | 0.1927 ± 0.0033 | 0.1957 ± 0.0034 | 0.1984 ± 0.0034
458.12 K, m1 = 0.885 | 0.2109 ± 0.0036 | 0.2139 ± 0.0037 | 0.2179 ± 0.0037
458.17 K, m1 = 0.28 | 0.1658 ± 0.0029 | 0.1682 ± 0.003 | 0.1704 ± 0.003
459.12 K, m1 = 0.56 | 0.1843 ± 0.0032 | 0.1878 ± 0.0033 | 0.19 ± 0.0033
459.89 K, m1 = 0.1 | 0.1532 ± 0.0027 | 0.1553 ± 0.0028 | 0.1577 ± 0.0028
462.13 K, m1 = 0.28 | 0.162 ± 0.0029 | 0.1649 ± 0.0029 | 0.1674 ± 0.0029
466.79 K, m1 = 0.885 | 0.2003 ± 0.0035 | 0.2038 ± 0.0035 | 0.2071 ± 0.0036
468.13 K, m1 = 0.56 | 0.175 ± 0.0031 | 0.1787 ± 0.0031 | 0.1813 ± 0.0032
468.74 K, m1 = 0.28 | 0.1558 ± 0.0028 | 0.1582 ± 0.0028 | 0.1612 ± 0.0029
468.97 K, m1 = 0.1 | 0.1454 ± 0.0026 | 0.1477 ± 0.0026 | 0.15 ± 0.0027
473.25 K, m1 = 0.1 | 0.1421 ± 0.0026 | 0.1467 ± 0.0026 | 0.149 ± 0.0027
475.55 K, m1 = 0.28 | 0.15 ± 0.0027 | 0.1528 ± 0.0027 | 0.1555 ± 0.0028
476.95 K, m1 = 0.885 | 0.1885 ± 0.0033 | 0.192 ± 0.0033 | 0.1956 ± 0.0034
479.55 K, m1 = 0.56 | 0.1637 ± 0.0029 | 0.1668 ± 0.0029 | 0.1699 ± 0.003
482.35 K, m1 = 0.1 | 0.1352 ± 0.0025 | 0.1378 ± 0.0025 | 0.1404 ± 0.0025
485.13 K, m1 = 0.885 | 0.1797 ± 0.0032 | 0.1835 ± 0.0032 | –
